Biological target: T1, human Glucose-dependent Insulinotropic Polypeptide Receptor (hGIPR) (Homo sapiens, UniProt P48546)
T1 sequence (P48546 22-466): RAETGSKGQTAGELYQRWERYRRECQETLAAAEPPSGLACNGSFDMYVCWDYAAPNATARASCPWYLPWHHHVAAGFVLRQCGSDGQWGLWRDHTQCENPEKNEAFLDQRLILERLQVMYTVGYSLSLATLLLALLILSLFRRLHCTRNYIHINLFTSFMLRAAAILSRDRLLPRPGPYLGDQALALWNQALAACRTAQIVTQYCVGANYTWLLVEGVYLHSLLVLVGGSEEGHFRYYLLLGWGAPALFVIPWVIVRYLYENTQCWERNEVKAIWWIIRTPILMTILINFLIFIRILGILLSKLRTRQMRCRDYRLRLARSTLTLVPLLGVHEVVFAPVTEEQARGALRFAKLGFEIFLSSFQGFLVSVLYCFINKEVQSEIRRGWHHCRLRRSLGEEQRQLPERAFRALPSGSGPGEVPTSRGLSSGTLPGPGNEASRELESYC
Experiment: Functional in vitro GIPR antagonist potency assay (intracellular cAMP, HTRF, hGIP stimulation at EC80)
Assay type: cell-based
Settings: not given
Method: Example AA. Functional In Vitro GIPR Antagonist Potency Assay
The functional in vitro antagonist potency for test compounds was determined by monitoring intracellular cyclic adenosine monophosphate (cAMP) levels in Chinese hamster ovary (CHO)—K1 cells stably expressing the human Glucose-dependent Insulinotropic Polypeptide Receptor (hGIPR). Following agonist activation, hGIPR associates with the G-protein complex causing the Gas subunit to exchange bound guanosine diphosphate (GDP) for guanosine triphosphate (GTP), followed by dissociation of the Gas-GTP complex. The activated Gas subunit can couple to downstream effectors to regulate the levels of second messengers or cAMP within the cell. Thereby, determination of intracellular cAMP levels allows for pharmacological characterization. Intracellular cAMP levels are quantitated using a homogenous assay utilizing the Homogeneous Time Resolved Fluorescence (HTRF) technology from Perkin Elmer. The method is a competitive immunoassay between native cAMP produced by the cells and cAMP labelled with the acceptor dye, d2. The two entities compete for binding to a monoclonal anti-cAMP antibody labeled with cryptate. The specific signal is inversely proportional to the concentration of cAMP in the cells.
Test compounds were solubilized to a concentration of 30 mM in 100% dimethyl sulfoxide (DMSO). An 11-point dilution series using 1 in 3.162-fold serial dilutions was created in 100% DMSO with a top concentration of 8 mM. The serially diluted compound was spotted with an Echo Acoustic liquid handler (Beckman Coulter) into a 384-well assay plate (Corning, Cat No. 3824) at 50 nL/well with duplicate points at each concentration, at a 200× final assay concentration (FAC). The final compound concentration range in the assay was 40 μM to […], with a final DMSO concentration of 0.5%.
Frozen assay-ready vials (at 1×10^7 cells/vial) of CHO-K1 cells stably expressing the Gs-coupled human GIPR receptor (Eurofins, DiscoverX, Cat No. 95-0146C2) were thawed, counted, and resuspended in assay buffer consisting of Hank's Balanced Salt Solution (HBSS, Lonza Cat No. 10-527) containing 20 mM (4-(2-hydroxyethyl)-1-piperazineethanesulfonic acid (HEPES, Lonza, Cat No. 17-737E), 0.1% bovine serum albumin (BSA, Sigma, Cat No. A7979), and 200 μM 3-isobutyl-1-methylxanthine (IBMX, Sigma, Cat No. 15879) at a density of 4×10^5 cells/mL. Cells were added to assay plate (5 μL/well of 4×10^5 cells/mL stock for 2,000 cells/well final) containing 50 nL of 200×FAC test compound, and incubated at 37° C. (95% O2: 5% CO2) for 2 hours, with micro-clime lids (Labcyte, Cat No. LLS-0310). Following the 2-hour cell and compound incubation, a stimulation mix comprised of hGIPR agonist human glucose-dependent insulinotropic polypeptide (hGIP, full length, Sigma Cat No. G2269) in assay buffer/0.1% DMSO was added to the assay plate (5 μL/well) at an estimated EC80 FAC (based on previous hGIP agonist curves) and incubated for another 30 minutes with micro-clime lids at 37° C. (95% O2: 5% CO2), after which intracellular cAMP levels were quantified as per Perkin Elmer's protocol (5 μL of d2 and then 5 μL cryptate, incubated for 1 hour at room temperature). Emission spectra of samples were measured on a Pherastar plate reader (BMG Labtech Inc) using a HTRF protocol (excitation, 320 nm; emission, 665 nm/620 nm).
(95% O2: 5% CO2), with a micro-clime lid. Following the 2-hour cell and DMSO incubation, a hGIP concentration response curve at 2×FAC (12-point curve using 1 in 3 serial dilutions, with triplicate points at each concentration, 100 nM final top concentration) in assay buffer/1% DMSO was added (5 μL/well) and incubated for a further 30 minutes with a micro-clime lid at 37° C. (95% O2: 5% CO2), after which intracellular cAMP levels were quantified and samples measured as described previously. Experiments passed quality control if the agonist concentration used for stimulation fell between the on-the-day EC50-EC90. […]

Row | Compound | IC50 [nM]
1 | CC(C)c1ccc(NC(=O)N2CCC[C@@H]2C(=O)Nc2ccn(-c3ccc(C(=O)O)cn3)n2)cc1F [Example 3, 6-{3-[(1-{[3-Fluoro-4-(propan-2-yl)phenyl]carbamoyl}-D-prolyl)amino]-1H-pyrazol-1-yl}pyridine-3-carboxylic Acid] | 20

Same assay, conditions: geometric mean; CHO-K1 cells stably expressing human GIPR, cAMP after hGIP stimulation at EC80

Row | Compound | IC50 [nM]
2 | Cc1cc(-n2ccc(NC(=O)[C@H]3CCCN3C(=O)NCc3ccc(C(F)(F)F)c(F)c3)n2)ccc1C(=O)O [Example 48, 4-(3-{[1-{{[3-fluoro-4-(trifluoromethyl)phenyl]methyl}carbamoyl)-D-prolyl]amino}-1H-pyrazol-1-yl)-2-methylbenzoic acid] | 150
3 | Cc1cc(-n2ccc(NC(=O)[C@H]3CCCN3C(=O)COc3ccc(OC(F)(F)F)cc3)n2)ccc1C(=O)O [Example 63, 2-methyl-4-{3-[(1-{[4-(trifluoromethoxy)phenoxy]acetyl}-D-prolyl)amino]-1H-pyrazol-1-yl}benzoic acid] | 46
4 | Cc1cc(-n2ccc(NC(=O)[C@H]3CCCN3C(=O)COc3ccc(C(F)(F)F)c(F)c3)n2)ccc1C(=O)O [Example 67, 4-{3-[(1-{[3-fluoro-4-(trifluoromethyl)phenoxy]acetyl}-D-prolyl)amino]-1H-pyrazol-1-yl}-2-methylbenzoic acid] | 61
5 | Cc1cc(-n2ccc(NC(=O)[C@H]3CCCN3C(=O)NCc3ccc(C4CC4)cc3)n2)ccc1C(=O)O [Example 47, 4-{3-[(1-{[(4-cyclopropylphenyl)methyl]carbamoyl}-D-prolyl)amino]-1H-pyrazol-1-yl}-2-methylbenzoic acid] | 220
6 | Cc1cc(-n2ccc(NC(=O)[C@H]3CCCN3C(=O)Nc3ccc(C(C)C)cc3)n2)c(F)cc1C(=O)O [Example 50, 5-fluoro-2-methyl-4-{3-[(1-{[4-(propan-2-yl)phenyl]carbamoyl}-D-prolyl)amino]-1H-pyrazol-1-yl}benzoic acid] | 21
7 | Cc1cc(-n2ccc(NC(=O)[C@H]3CCCN3C(=O)Nc3ccc(C(C)C)c(F)c3)n2)ccc1C(N)=O [Example 16, (2R)—N^2-[1-(4-Carbamoyl-3-methylphenyl)-1H-pyrazol-3-yl]-N^1-[3-fluoro-4-(propan-2-yl)phenyl]pyrrolidine-1,2-dicarboxamide] | 110

Second part, the compound after the results:

Row | IC50 [nM] | Compound
8 | 28 | Cc1c(C(=O)O)ccc(-n2ccc(NC(=O)[C@H]3CCCN3C(=O)COc3ccc(C(F)(F)F)cc3)n2)c1F [Example 64, 3-fluoro-2-methyl-4-{3-[(1-{[4-(trifluoromethyl)phenoxy]acetyl}-D-prolyl)amino]-1H-pyrazol-1-yl}benzoic acid]
9 | 22 | CC(C)c1ccc(NC(=O)N2CCC[C@@H]2C(=O)Nc2ccn(-c3ccc(C(=O)O)cc3)n2)cc1 [Example 22, 4-{3-[(1-{[4-(propan-2-yl)phenyl]carbamoyl}-D-prolyl)amino]-1H-pyrazol-1-yl}benzoic acid]
10 | 98 | Cc1cc(-n2ccc(NC(=O)[C@H]3CCCN3C(=O)Nc3ccc(OC(F)(F)F)cc3)n2)ccc1C(N)=O [Example 41]
11 | 43 | O=C(O)c1ccc(-n2ccc(NC(=O)[C@H]3CCCN3C(=O)Nc3ccc(C(F)(F)F)cc3)n2)cc1 [Example 23, 4-{3-[(1-{[4-(trifluoromethyl)phenyl]carbamoyl}-D-prolyl)amino]-1H-pyrazol-1-yl}benzoic acid]
12 | 74 | O=C(O)c1ccc(-n2ccc(NC(=O)[C@H]3CCCN3C(=O)Nc3ccc(C(F)(F)F)cc3)n2)nc1 [Example 27, 6-{3-[(1-{[4-(trifluoromethyl)phenyl]carbamoyl}-D-prolyl)amino]-1H-pyrazol-1-yl}pyridine-3-carboxylic acid]
13 | 36 | Cc1cc(-n2ccc(NC(=O)[C@H]3CCCN3C(=O)COc3ccc(C(F)(F)F)cc3)n2)ccc1C(=O)O [Example 17, 2-Methyl-4-{3-[(1-{[4-(trifluoromethyl)phenoxy]acetyl}-D-prolyl)amino]-1H-pyrazol-1-yl}benzoic Acid]

Source: US20250326741A1, “GLUCOSE-DEPENDENT INSULINOTROPIC POLYPEPTIDE RECEPTOR ANTAGONISTS AND USES THEREOF” (Pfizer Inc., priority 2024, published 2025)
